The text below walks through data of the RepoRT retention time repository.

Counter-ions that a name gives are not always drawn.

This data set can be described thus: RP, Waters CORTECS UPLC C18, 100 × 2.1 mm, 1.6 µm, 40 °C, 0.4 mL/min, estimated dead time 0.55 min; A: water + 0.1% formic acid, pH 3; B: acetonitrile + 0.1% formic acid, pH 3; gradient (min/%B) 0/5 1.12/5 6.41/99.5 10.01/99.5. Conditions: stereoisomer not certain.
Regarding `CCCCCCCCC=CCCCCCCCC(=O)OC(CC(=O)[O-])C[N+](C)(C)C` [Oleoyl-L-carnitine], the LC retention time was 5.63 min.

Turning to `CNC(=O)CSP(=O)(OC)OC` [Omethoate], the LC retention time was 1.75 min.

As for `CC(C)Oc1cc(-n2nc(C(C)(C)C)oc2=O)c(Cl)cc1Cl` [Oxadiazon], the LC retention time is 6.14 min.

Take `COCC(=O)N(c1c(C)cccc1C)N1CCOC1=O` [Oxadixyl]: the LC retention time was 3.8 min.

As for `Cc1cc(C)nc(NC(=O)NS(=O)(=O)c2ccccc2C(=O)OC2COC2)n1` [Oxasulfuron], the LC retention time is 3.85 min.

For the compound `CC1(C)COC(=O)C1O` (stereo unspecified) [PANTOLACTONE], the LC retention time is 3.31 min.

With `Cn1c(=O)[nH]c2ncn(C)c2c1=O` [PARAXANTHINE], the LC retention time was 2.15 min.

For `NC(Cc1ccccc1)C(=O)O` (stereo unspecified) [PHENYLALANINE], the LC retention time was 1.25 min.

For the compound `NCC(O)c1ccccc1` (stereo unspecified) [PHENYLETHANOLAMINE], the LC retention time was 0.755 min.

`O=C(O)c1ccccn1` [PICOLINATE]: the LC retention time was 0.719 min.

With `O=C(O)c1ccc[nH]1` [PYRROLE-2-CARBOXYLATE], the LC retention time is 0.766 min.

With `CC(C)(C)C(O)C(Cc1ccc(Cl)cc1)n1cncn1` (stereo unspecified) [Paclobutrazol], the LC retention time was 4.7 min.

Turning to `CCCC(Cn1cncn1)c1ccc(Cl)cc1Cl` (stereo unspecified) [Penconazole], the LC retention time is 5.19 min.

Regarding `O=C(Nc1ccccc1)N(Cc1ccc(Cl)cc1)C1CCCC1` [Pencycuron], the LC retention time was 5.69 min.

As for `CCC(CC)Nc1c([N+](=O)[O-])cc(C)c(C)c1[N+](=O)[O-]` [Pendimethalin (Penoxalin)], the LC retention time was 5.42 min.

For `COC(=O)Nc1cccc(OC(=O)Nc2cccc(C)c2)c1` [Phenmediphan], the LC retention time is 4.71 min.

Turning to `CCOC(=O)C(SP(=S)(OC)OC)c1ccccc1` (stereo unspecified) [Phenthoate], the LC retention time is 5.54 min.

Consider `O=C(O)C(=O)Cc1ccccc1` [Phenylpyruvic acid], for which the LC retention time is 2.29 min.

For the compound `CCOP(=S)(OCC)SCn1c(=O)oc2cc(Cl)ccc21` [Phosalone], the LC retention time is 5.7 min.

As for `CCOP(=S)(OCC)ON=C(C#N)c1ccccc1` [Phoxim], the LC retention time was 5.44 min.

As to `O=C(Nc1ccc(F)cc1)c1cccc(Oc2cccc(C(F)(F)F)c2)n1` [Picolinafen], the LC retention time is 5.93 min.

In the case of `COC=C(C(=O)OC)c1ccccc1COc1cccc(C(F)(F)F)n1` [Picoxystrobin], the LC retention time is 5.45 min.

`Cc1nc(N(C)C)nc(OC(=O)N(C)C)c1C` [Pirimicarb]: the LC retention time was 3.06 min.

`CCN(CC)c1nc(C)cc(OP(=S)(OC)OC)n1` [Pirimiphos-methyl]: the LC retention time is 5.67 min.

As for `CCCN(CCOc1c(Cl)cc(Cl)cc1Cl)C(=O)n1ccnc1` [Prochloraz], the LC retention time is 4.73 min.

Regarding `CC12CC1(C)C(=O)N(c1cc(Cl)cc(Cl)c1)C2=O` (stereo unspecified) [Procymidone], the LC retention time is 5.21 min.

Take `CCCSP(=O)(OCC)Oc1ccc(Br)cc1Cl` (stereo unspecified) [Profenofos]: the LC retention time was 5.85 min.

Consider `COc1nc(NC(C)C)nc(NC(C)C)n1` [Prometon], for which the LC retention time was 3.54 min.

Take `CCCOC(=O)NCCCN(C)C` [Propamocarb]: the LC retention time was 1.97 min.

With `CCCC1COC(Cn2cncn2)(c2ccc(Cl)cc2Cl)O1` (stereo unspecified) [Propioconazole], the LC retention time was 5.3 min.

As to `CCC(=O)OC(CC(=O)[O-])C[N+](C)(C)C` [Propionyl-L-carnitine], the LC retention time is 0.871 min.

As for `C#CC(C)(C)NC(=O)c1cc(Cl)cc(Cl)c1` [Propyzamide], the LC retention time was 5.01 min.

Consider `CCCN(CCC)C(=O)SCc1ccccc1` [Prosulfocarb], for which the LC retention time is 5.95 min.

Consider `CC1=NNC(=O)N(N=Cc2cccnc2)C1` [Pymetrozin], for which the LC retention time is 1.02 min.

`CC1=C(C(=O)Nc2ccccc2)CCCO1` [Pyracarbolid]: the LC retention time is 4.15 min.

Regarding `COC(=O)N(OC)c1ccccc1COc1ccn(-c2ccc(Cl)cc2)n1` [Pyraclostrobin], the LC retention time is 5.6 min.

As to `CC(C)(C)c1ccc(CSc2cnn(C(C)(C)C)c(=O)c2Cl)cc1` [Pyridaben], the LC retention time was 6.5 min.

Regarding `CCCCCCCCSC(=O)Oc1cc(Cl)nnc1-c1ccccc1` [Pyridat], the LC retention time was 6.78 min.

Take `Cc1cc(C)nc(Nc2ccccc2)n1` [Pyrimethanil]: the LC retention time was 4.13 min.

Take `CC(COc1ccc(Oc2ccccc2)cc1)Oc1ccccn1` (stereo unspecified) [Pyripoxyfen]: the LC retention time is 6.07 min.

On to `CCOP(=S)(OCC)Oc1cnc2ccccc2n1` [Quinalfos], for which the LC retention time is 5.44 min.

Regarding `Cc1cnc2c(C(=O)O)c(Cl)ccc2c1` [Quinmerac], the LC retention time was 3.17 min.

Turning to `NC1=C(Cl)C(=O)c2ccccc2C1=O` [Quinoclamine], the LC retention time is 3.86 min.

As for `Cc1cc2nc3c(=O)[nH]c(=O)nc-3n(CC(O)C(O)C(O)CO)c2cc1C` (stereo unspecified) [RIBOFLAVIN], the LC retention time was 2.67 min.

For `OCC1OC(O)C(O)C1O` (stereo unspecified) [RIBOSE], the LC retention time is 0.798 min.

Take `CCS(=O)(=O)c1cccnc1S(=O)(=O)NC(=O)Nc1nc(OC)cc(OC)n1` [Rimsulfuron]: the LC retention time was 4.11 min.

On to `C[S+](CCC(N)C(=O)[O-])CC1OC(n2cnc3c(N)ncnc32)C(O)C1O` (stereo unspecified) [S-ADENOSYLMETHIONINE], for which the LC retention time is 5.56 min.

For the compound `CCCCCCSCC(NC(=O)CCC(N)C(=O)O)C(=O)NCC(=O)O` (stereo unspecified) [S-HEXYL-GLUTATHIONE], the LC retention time was 3.31 min.

On to `NC(=O)c1ccccc1O` [SALICYLAMIDE], for which the LC retention time was 2.88 min.

Regarding `CC1NCCc2cc(O)c(O)cc21` (stereo unspecified) [SALSOLINOL], the LC retention time is 0.749 min.

As for `CC(C)=CCCC(C)=CCCC(C)=CCCC=C(C)CCC=C(C)CCC=C(C)C` [SQUALENE], the LC retention time was 6.18 min.

Take `CCNc1nc(NC(C)CC)nc(OC)n1` (stereo unspecified) [Secbumeton]: the LC retention time is 3.53 min.

With `C=CCNC(=O)c1c([Si](C)(C)C)sc(C)c1C` [Silthiofam], the LC retention time was 5.36 min.

For `CCC1CCCC(OC2CCC(N(C)C)C(C)O2)C(C)C(=O)C2=CC3C(C=CC4CC(OC5OC(C)C(OC)C(OC)C5OC)CC43)C2CC(=O)O1` (stereo unspecified) [Spinosad A & D], the LC retention time is 4.76 min.

Turning to `Cc1cc(C)c(C2=C(OC(=O)CC(C)(C)C)C3(CCCC3)OC2=O)c(C)c1` [Spiromesifen], the LC retention time is 6.47 min.

Regarding `CCOC(=O)OC1=C(c2cc(C)ccc2C)C(=O)NC12CCC(OC)CC2` (stereo unspecified) [Spirotetramat], the LC retention time is 4.8 min.

With `CCCN(CC)CC1COC2(CCC(C(C)(C)C)CC2)O1` (stereo unspecified) [Spiroxamine], the LC retention time is 4.29 min.

In the case of `CCCCCCCCCCCCCCCCCC(=O)OC(CC(=O)[O-])C[N+](C)(C)C` [Stearoyl-L-carnitine], the LC retention time was 5.89 min.

As for `CCS(=O)(=O)c1nnc(N(C)C(=O)NC)s1` [Sulfadiazole], the LC retention time is 3.13 min.

On to `Cc1nn(-c2cc(NS(C)(=O)=O)c(Cl)cc2Cl)c(=O)n1C(F)F` [Sulfentrazone], for which the LC retention time was 4.21 min.

Regarding `Cn1c(=O)c2[nH]cnc2n(C)c1=O` [THEOPHYLLINE], the LC retention time was 2.15 min.

On to `Cc1cn(C2CC(O)C(CO)O2)c(=O)[nH]c1=O` (stereo unspecified) [THYMIDINE], for which the LC retention time is 1.1 min.

Regarding `Cc1c[nH]c(=O)[nH]c1=O` [THYMINE], the LC retention time was 0.792 min.

Turning to `NC(Cc1cc(I)c(Oc2cc(I)c(O)c(I)c2)c(I)c1)C(=O)O` (stereo unspecified) [THYROXINE], the LC retention time is 3.97 min.

Turning to `O=C/C=C/c1ccccc1` [TRANS-CINNAMALDEHYDE], the LC retention time is 5 min.

Turning to `NCCc1c[nH]c2ccccc12` [TRYPTAMINE], the LC retention time is 2.43 min.

Regarding `NCCc1ccc(O)cc1` [TYRAMINE], the LC retention time was 0.755 min.

Take `CC(CCC(=O)NCCS(=O)(=O)O)C1CCC2C3C(O)CC4CC(O)CCC4(C)C3CC(O)C12C` (stereo unspecified) [Taurocholic acid sodium salt hydrate]: the LC retention time was 3.74 min.

`CC(CCC(=O)NCCS(=O)(=O)O)C1CCC2C3CCC4CC(O)CCC4(C)C3CC(O)C12C` (stereo unspecified) [Taurodeoxycholic acid]: the LC retention time is 4.16 min.

With `CC(CCC(=O)NCCS(=O)(=O)O)C1CCC2C3C(O)CC4CC(O)CCC4(C)C3CCC12C` (stereo unspecified) [Tauroursodeoxycholic acid], the LC retention time was 4.18 min.

For the compound `CC(C)(C)C(O)(CCc1ccc(Cl)cc1)Cn1cncn1` (stereo unspecified) [Tebuconazole], the LC retention time was 5.06 min.

With `CCc1nn(C)c(C(=O)NCc2ccc(C(C)(C)C)cc2)c1Cl` [Tebufanpyrad], the LC retention time is 5.93 min.

As for `CCc1ccc(C(=O)NN(C(=O)c2cc(C)cc(C)c2)C(C)(C)C)cc1` [Tebufenozide], the LC retention time is 5.33 min.

On to `CNC(=O)N(C)c1nnc(C(C)(C)C)s1` [Tebuthiuron], for which the LC retention time was 3.68 min.

Turning to `O=C(NC(=O)c1c(F)cccc1F)Nc1cc(Cl)c(F)c(Cl)c1F` [Teflubenzuron], the LC retention time was 5.7 min.

As for `c1ccc2[nH]c(-c3cscn3)nc2c1` [Thiabendazole], the LC retention time was 2.53 min.

In the case of `N#CN=C1SCCN1Cc1ccc(Cl)nc1` [Thiacloprid], the LC retention time was 3.6 min.

Regarding `CN1COCN(Cc2cnc(Cl)s2)C1=N[N+](=O)[O-]` [Thiametoxam], the LC retention time was 2.87 min.

Consider `O=C(Nc1ccccc1)Nc1cnns1` [Thidiazuron], for which the LC retention time is 3.74 min.

Regarding `COC(=O)c1sccc1S(=O)(=O)NC(=O)Nc1nc(C)nc(OC)n1` [Thifensulfurson methyl], the LC retention time was 3.9 min.

As for `CSC(C)=NOC(=O)N(C)SN(C)C(=O)ON=C(C)SC` [Thiodicarb], the LC retention time was 4 min.
